# In patent US11806352B2, “Theobromine for increasing HDL-cholesterol” (UPFIELD EUROPE B.V., priority 2010, dated 2023):
# Several values for one entry are separate records, joined by “and”; a condition that tells them apart may be missing. Identical values can stand only once.
# Legend:
# Wistar rats [1] = conditions: 700 mg/kg body weight; cited from earlier work
# [2] = tested on: healthy males and females; assay: Example 2: randomized placebo-controlled 2 by 2 factorial parallel study, dairy drinks, blood lipid profile; assay type: in vivo, humans
# Method: In a randomized controlled intervention study with 153 healthy males and females the effect of drinks containing cocoa, added theobromine or a combination of cocoa and added theobromine was assessed on HDL cholesterol (HDL-C). As a secondary objective the effect of the various drinks on total cholesterol (TC), LDL cholesterol (LDL-C), Triglycerides (TG) and blood pressure (BP) was assessed. […] After a run-in period of 2 weeks the subjects consumed for 4 weeks daily (in the morning one hour before breakfast) 200 ml acidified dairy drink as in table 5, with added to that 1) none (control drink), 2) 5.9 g cocoa powder (Acticoa, Barry-Callebaut) containing about 500 mg polyphenols and 150 mg theobromine 3) about 850 mg synthetic theobromine (Fagron) and 4) 5.9 g cocoa powder containing 500 mg polyphenols and 150 mg theobromine plus added thereto about 850 mg synthetic theobromine (Fagron) (in total about 1 g theobromine). The synthetic theobromine used was: theobromine complying with European Pharmacopeia 5.7, as available from […], Belgium. For preparing the test products containing theobromine, theobromine was dissolved in a 1 M NaOH solution to create a theobromine stock solution, containing approximately 170 mg/ml of thebromine. The various drinks used in the trial have been made using the following processing: • mixing of the pectin with all of the sugar • dispersing the pectin/sugar mix with part of the demi water at 80° C. to prepare a pectin slurry • dissolving smp in the remainder of the demi water at a temperature of 40° C. • adding the cream • adding the xanthan gum under vigorous mixing for 15 minutes • adding the pectin slurry • adding sucralose • (depending on the drink: adding the cacao slowly under vigorous mixing) • (depending on the drink: adding the theobromine solution) • adding the sunflower oil • adding the flavours and colorants • acidifying the premix with lactic acid until pH 4.2 Inclusion criteria: generally healthy men and pre-menopausal women, age 40-70, with a 10-year risk of developing CHD<10%, not on active cholesterol-lowering or anti-hypertensive treatment and non-smoking. Details of the subject characteristics are set out in table 6. Venous blood samples were drawn from the antecubital vein in SST II advance BD tubes in fasting condition (morning, before breakfast) for blood lipid profile (HDL-C, LDL-C, total cholesterol (TC), triglycerides, HDL-C being herein high density lipoprotein cholesterol, and LDL-C herein being low density lipoprotein cholesterol). The blood samples were taken twice at baseline and were repeated twice after the end of the intervention period. All measurements were done with standard laboratory techniques. Serum lipid outcomes were done in the Intention to treat (ITT) and Per Protocol (PP) population. The statistical analysis was done according to a full 2×2 factorial design including interaction of theobromine and cocoa. Gender within treatment and baseline blood lipids were included in the model as covariates. A 2 sided p-value<0.05 was considered significant.
# [3] = tested on: healthy males and females; assay: Example 2: same intervention study, blood pressure; assay type: in vivo, humans
# Method: In a randomized controlled intervention study with 153 healthy males and females the effect of drinks containing cocoa, added theobromine or a combination of cocoa and added theobromine was assessed on HDL cholesterol (HDL-C). As a secondary objective the effect of the various drinks on total cholesterol (TC), LDL cholesterol (LDL-C), Triglycerides (TG) and blood pressure (BP) was assessed.
# After a run-in period of 2 weeks the subjects consumed for 4 weeks daily (in the morning one hour before breakfast) 200 ml acidified dairy drink as in table 5, with added to that 1) none (control drink), 2) 5.9 g cocoa powder (Acticoa, Barry-Callebaut) containing about 500 mg polyphenols and 150 mg theobromine 3) about 850 mg synthetic theobromine (Fagron) and 4) 5.9 g cocoa powder containing 500 mg polyphenols and 150 mg theobromine plus added thereto about 850 mg synthetic theobromine (Fagron) (in total about 1 g theobromine). The synthetic theobromine used was: theobromine complying with European Pharmacopeia 5.7, as available from Fagron, Waregem, Belgium.
# Inclusion criteria: generally healthy men and pre-menopausal women, age 40-70, with a 10-year risk of developing CHD<10%, not on active cholesterol-lowering or anti-hypertensive treatment and non-smoking. Details of the subject characteristics are set out in table 6.
# The statistical analysis was done according to a full 2×2 factorial design including interaction of theobromine and cocoa. Gender within treatment and baseline blood lipids were included in the model as covariates. A 2 sided p-value<0.05 was considered significant.
# Wistar rats [4] = conditions: rats fed a diet supplemented with 0.3% of theobromine; cited from earlier work
# [5] = after 4 weeks, ITT, baseline ratio and gender as covariables
# [6] = fasting blood, after 4 weeks daily 200 ml drink, ITT, baseline and gender as covariables
# [7] = pair-wise comparison, treatment A = Placebo, 4 weeks
smiles,measurement,setting,value
"Cn1cnc2c1c(=O)[nH]c(=O)n2C [Theobromine, 2,6-dihydroxy-3,7-dimethylpurine]",HDL-cholesterol,Wistar rats [1],elevated
same,LDL-cholesterol,Wistar rats [1],decreased
same,total cholesterol,Wistar rats [1],decreased
same,triglycerides,Wistar rats [1],decreased
same,HDL-C increase compared to placebo,[2]; 4 weeks,~10%
same,Serum LDL-C decrease compared to placebo,[2]; 4 weeks,about 5%
same,Serum LDL-C decrease,"[2]; 4 weeks, compared to placebo",0.18 mmol/L
same,increase in ApoA1 concentrations,"[2]; 4 weeks, main apoprotein found in HDL particles",0.11
same,"Triglyceride, Mean","[2]; after 4 weeks, ITT, baseline and gender as covariables",1.05 mmol/L
same,"HDL-C/LDL-C ratio, Mean",[2]; [5],0.52
same,"HDL-C/non-HDL-C ratio, Mean",[2]; [5],0.43
same,"Total cholesterol, Mean","[2]; fasting blood, after 4 weeks daily 200 ml drink, ITT n=143, baseline and gender as covariables",5.82 mmol/L
same,"HDL-C, Mean",[2]; [6],1.75 mmol/L
same,"LDL-C, Mean",[2]; [6],3.30 mmol/L
same,"HDL-C, Change (A − B)",[2]; [7],0.159 mmol/L
same,"HDL-C/LDL_c ratio, Change (A − B)",[2]; [7],0.12 and 0.117
same,"HDL-C/non-HDL-C ratio, Change (A − B)",[2]; [7],0.13 and 0.126
same,"LDL-C, Change (A − B)",[2]; [7],-0.184 mmol/L
same,"Total cholesterol, Change (A − B)",[2]; [7],-0.038 mmol/L
same,"Triglycerides, Change (A − B)",[2]; [7],0.018 mmol/L
same,"HDL-C, Change (A − B)","[2]; pair-wise comparison, treatment A = Placebo, 4 weeks, listed as theobromine",0.16 mmol/L
same,effect on blood pressure,"[3]; 4 weeks, vs control",no significant effect
same,"DBP, Mean","[3]; after 4 weeks, ITT, baseline DBP and gender as covariables",75.0 mm Hg
same,"SBP, Mean","[3]; after 4 weeks, ITT, baseline SBP and gender as covariables",121.2 mm Hg
same,"DBP, Change (A − B)",[3]; [7],−0.20 mm Hg
same,"SBP, Change (A − B)",[3]; [7],2.55 mm Hg
same,Serum total cholesterol,Wistar rats [4],significantly increased
